Experimental data: patent US8173385B2, “Method for stabilization of peptides in a biological sample” (Kyowa Medex Co., Ltd., priority 2005, dated 2012)
Where two headings read alike, the source gives them in different places.

How the values were obtained:
[1] = test system: substance P in human plasma
Description: (§1) To 50 μL portions of human plasma prepared in the same manner as in Example 1 was added a 400 mg/mL aqueous solution of glucose (special grade; Kanto Chemical Co., Inc.) prepared with purified water (100 μL), followed by mixing. […] The concentrations of substance P in the thawed portions of sample N were measured in the same manner as in Example 1 to calculate the residual rates, which are the index for the stability of substance P in plasma.
(§2) To 50 μL portions of human plasma prepared in the same manner as in Example 1 was added a 200 pg/mL aqueous solution of substance P (50 μL) to prepare six portions of sample.
(§3) After the preparation, the samples were frozen at −80° C. and then thawed at room temperature 0 day, 3 days and 13 days after the freezing. The concentrations of substance P in the thawed samples were measured in the same manner as in Example 1 using Substance P EIA Kit (Cayman) to calculate the residual rates, which are the index for the stability of substance P in plasma.

[2] = test system: neutral endopeptidase (NEP); test: Effect of addition of a saccharide on degradation of substance P by neutral endopeptidase (NEP); format: biochemical; conditions: for Degradation of substance P by NEP: result in words
Description: Similarly, samples each comprising 150 μL of human plasma, 150 μL of a 200 pg/mL aqueous solution of substance P, 300 μL of a 400 mg/mL aqueous solution of glucose and 50 μL of an enzyme solution (respective NEP concentrations; 0 U/mL, 0.1 U/mL, 1.0 U/mL and 10.0 U/mL) were prepared.
Further, samples each comprising 150 μL of human plasma, 150 μL of a 200 pg/mL aqueous solution of substance P, 300 μL of a 10 mmol/L aqueous solution of phosphoramidon and 50 μL of an enzyme solution (respective NEP concentrations; 0 U/mL, 0.1 U/mL, 1.0 U/mL and 10.0 U/mL) were prepared.

[3] = test system: substance P in human plasma; test: Stabilization of substance P in plasma by addition of a saccharide when frozen at −80° C.; conditions: Example 6: same additive solutions
Description: as §1, §2, §3

[4] = Stability of substance P in aqueous solution without plasma (Substance P EIA Kit); format: physicochemical; conditions: for Concentration of substance P measured in the substance P solution: 200 pg/mL aqueous solution
Description: When the 200 pg/mL aqueous solution of substance P was, without being mixed with the human plasma, subjected to measurement of substance P under the present measurement conditions including incubation at 4° C. for 18 hours, the obtained value was 226.16 pg/mL. […] On the other hand, as shown in the experiment on the control sample, when the sample having the initial substance P concentration of 116.93 pg/mL was subjected to measurement under the present measurement conditions including incubation at 4° C. for 18 hours, the obtained average substance P concentration was 60.57 pg/mL.
The concentrations of substance P in the human plasma used for the preparation of the samples subjected to the incubation for 16 hours, 24 hours and 48 hours were determined to be 15.02 pg/mL, 4.95 pg/mL and 5.71 pg/mL, respectively. The concentrations of substance P in the substance P solution used for the preparation of the samples subjected to the incubation for 16 hours, 24 hours and 48 hours were determined to be 211.1 pg/mL, 208.4 pg/mL and 197.8 pg/mL, respectively. From these measurement values, the theoretical values of the concentrations of substance P in the samples were calculated in the same manner as in Example 1, and the residual rates were calculated from the theoretical values and the measurement values.

[5] = test system: substance P in human plasma; conditions: 4° C. 18 hours
Description: To 50 μL portions of the human plasma were respectively added a 200 mg/mL aqueous solution of xylose, a 200 mg/mL aqueous solution of glucose, a 200 mg/mL aqueous solution of mannose and a 200 mg/mL aqueous solution of galactose (100 μL each), followed by mixing.
Measurement of substance P in samples A to D and the control sample was carried out in duplicate in the following manner, using Substance P EIA Kit (Cayman) according to the manual attached to the kit.
The above kit is a kit for enzyme immunoassay by the competitive method using, as a competitive substance, substance P bound to acetylcholine esterase (substance P AchE tracer). The measurement with this kit is carried out by allowing substance P in a sample and the competitive substance to competitively react with anti-substance P antibody on a solid phase and reacting acetylcholine esterase in the competitive substance bound to the anti-substance P antibody on a solid phase with Ellman's reagent to develop color, followed by the measurement of the absorbance. Then, the concentration of substance P in the sample can be determined based on a previously prepared calibration curve. […]

## O=C([O-])CN(CCN(CC(=O)[O-])CC(=O)O)CC(=O)O.[Na+].[Na+] [EDTA•2Na, ethylenediaminetetraacetic acid.disodium]
[1]
  Residual rate, Day 3: 26.4%
  Residual rate, Day 13: 32.6%

## CC(C)C[C@H](NP(=O)(O)O[C@@H]1O[C@@H](C)[C@H](O)[C@@H](O)[C@H]1O)C(=O)N[C@@H](Cc1c[nH]c2ccccc12)C(=O)O [Phosphoramidon, phosphoramidon]
[2]
  Degradation of substance P by NEP: inhibited
[1]; human, 3 days
  Residual rate, Day 3: 29.0%
[1]; human, 13 days
  Residual rate, Day 13: 25.6%

## magnesium gluconate
[3]; thawed 3 days after the freezing
  Residual rate, Day 3: 42.6%
[3]; thawed 13 days after the freezing
  Residual rate, Day 13: 40.1%

## substance P
[2]; human plasma + substance P ± 400 mg/mL glucose or 10 mmol/L phosphoramidon solution, enzyme solution NEP 0 U/mL
  Residual rate of substance P, NEP concentration 0 U/mL: 100.0%
[2]; human plasma + substance P ± 400 mg/mL glucose or 10 mmol/L phosphoramidon solution, enzyme solution NEP 0.1 U/mL
  Residual rate of substance P, NEP concentration 0.1 U/mL: 102.2%
[2]; human plasma + substance P ± 400 mg/mL glucose or 10 mmol/L phosphoramidon solution, enzyme solution NEP 1.0 U/mL
  Residual rate of substance P, NEP concentration 1.0 U/mL: 93.3%
[2]; human plasma + substance P ± 400 mg/mL glucose or 10 mmol/L phosphoramidon solution, enzyme solution NEP 10.0 U/mL
  Residual rate of substance P, NEP concentration 10.0 U/mL: 84.0%
[2]
  Degradation of substance P by NEP: degraded by NEP
[4]; incubation 16 hours at 4° C.
  Concentration of substance P measured in the substance P solution: 0.2111 ng/mL
[4]; incubation 24 hours at 4° C.
  Concentration of substance P measured in the substance P solution: 0.2084 ng/mL
[4]; incubation 48 hours at 4° C.
  Concentration of substance P measured in the substance P solution: 0.1978 ng/mL
[4]; 4° C. 18 hours, result in words
  Stability of substance P in the aqueous solution: stable
[4]; without human plasma, incubation at 4° C. for 18 hours
  Concentration of substance P measured in the 200 pg/mL aqueous solution of substance P: 0.22616 ng/mL
[5]; control sample, initial substance P concentration 116.93 pg/mL
  Average substance P concentration in plasma without saccharide: 60.57 pg/mL
[5]; no saccharide, result in words
  Stability of substance P in the presence of plasma: unstable
